Assay [1] deals with Sigma 2 receptor. Nature of the assay: Tested for [3H]DTG binding to sigma-2 receptor in NG108-15 cell membranes.
The target in the next assay is D(2) dopamine receptor (Homo sapiens, UniProt P14416). Nature of the assay: biochemical.
The target of a further assay is D(3) dopamine receptor (Homo sapiens, UniProt P35462). Nature of the assay: biochemical.
The species entered for assay [2] is Rattus norvegicus. The note with it: Striatum.
Description: Effect of compound (0.2 mg/kg ip) on the concentration of 5-HIAA in rat striatum
For assay [3], the species on record is Rattus norvegicus. The note with it: Striatum. The source holds these as a separate data set.
Description: Effect of compound (0.2 mg/kg ip) on the concentration of 5-HT in rat striatum
The species named for assay [4] is Rattus norvegicus. The note with it: Frontal cortex.
Description: Effect of compound (0.2 mg/kg ip) on the concentration of DA in rat frontal cortex
For assay [5], the species on record is Rattus norvegicus.
Description: Effect of compound (0.2 mg/kg ip) on the concentration of DA in rat mesolimbic region
The species named for assay [6] is Rattus norvegicus. The note with it: Striatum. The source holds these as a separate data set.
Description: Effect of compound (0.2 mg/kg ip) on the concentration of DA in rat striatum
The species named for assay [7] is Rattus norvegicus. The note with it: Frontal cortex. The source holds these as a separate data set.
Description: Effect of compound (0.2 mg/kg ip) on the concentration of DOPAC in rat frontal cortex
The species entered for assay [8] is Rattus norvegicus. The source holds these as a separate data set.
Description: Effect of compound (0.2 mg/kg ip) on the concentration of DOPAC in rat mesolimbic region
For assay [9], the species on record is Rattus norvegicus. Conditions: Striatum. The source holds these as a separate data set.
Description: Effect of compound (0.2 mg/kg ip) on the concentration of DOPAC in rat striatum
Assay [10] is filed under the species Rattus norvegicus. This is another data set of the same source.
Description: Effect of compound (0.2 mg/kg ip) on the concentration of DOPAC/DA in rat mesolimbic region
The species named for assay [11] is Rattus norvegicus. The note with it: Striatum. The source holds these as a separate data set.
Description: Effect of compound (0.2 mg/kg ip) on the concentration of DOPAC/DA in rat striatum
Assay [12] is filed under the species Rattus norvegicus. The note with it: Frontal cortex. This is another data set of the same source.
Description: Effect of compound (0.2 mg/kg ip) on the concentration of HVA in rat frontal cortex
For assay [13], the species on record is Rattus norvegicus. This is another data set of the same source.
Description: Effect of compound (0.2 mg/kg ip) on the concentration of HVA in rat mesolimbic region
For assay [14], the species on record is Rattus norvegicus. Conditions: Striatum. The source holds these as a separate data set.
Description: Effect of compound (0.2 mg/kg ip) on the concentration of HVA in rat striatum
Assay [15] is filed under the species Rattus norvegicus. Conditions: Frontal cortex. This is another data set of the same source.
Description: Effect of compound on (0.2 mg/kg ip) the concentration of 5-HIAA in rat frontal cortex
Assay [16] is filed under the species Rattus norvegicus. The source holds these as a separate data set.
Description: Effect of compound on (0.2 mg/kg ip) the concentration of 5-HIAA in rat mesolimbic region
Assay [17] is filed under the species Rattus norvegicus. Conditions: Frontal cortex. This is another data set of the same source.
Description: Effect of compound on (0.2 mg/kg ip) the concentration of 5-HT in rat frontal cortex
Assay [18] is filed under the species Rattus norvegicus. The source holds these as a separate data set.
Description: Effect of compound on (0.2 mg/kg ip) the concentration of 5-HT in rat mesolimbic region
The species entered for assay [19] is Rattus norvegicus. Conditions: Frontal cortex. The source holds these as a separate data set.
Description: Effect of compound on (0.2 mg/kg ip) the concentration of DOPAC/DA in rat frontal cortex
For assay [20], the target named is Sigma 2 receptor. Nature of the assay: Tested for [3H]DTG binding to sigma-2 receptor in NG108-15 membrane. It counts as cell membranes.
Assay [21] is filed under the species Rattus norvegicus. Conditions: Frontal cortex. The source holds these as a separate data set.
Description: Effect of compound (2 mg/kg ip) on the concentration of 5-HIAA in rat frontal cortex
For assay [22], the species on record is Rattus norvegicus. The source holds these as a separate data set.
Description: Effect of compound (2 mg/kg ip) on the concentration of 5-HIAA in rat mesolimbic region
Assay [23] is filed under the species Rattus norvegicus. The note with it: Striatum. The source holds these as a separate data set.
Description: Effect of compound (2 mg/kg ip) on the concentration of 5-HIAA in rat striatum
For assay [24], the species on record is Rattus norvegicus. The note with it: Frontal cortex. This is another data set of the same source.
Description: Effect of compound (2 mg/kg ip) on the concentration of 5-HT in rat frontal cortex
The species entered for assay [25] is Rattus norvegicus. This is another data set of the same source.
Description: Effect of compound (2 mg/kg ip) on the concentration of 5-HT in rat mesolimbic region
For assay [26], the species on record is Rattus norvegicus. Conditions: Striatum. This is another data set of the same source.
Description: Effect of compound (2 mg/kg ip) on the concentration of 5-HT in rat striatum
The species entered for assay [27] is Rattus norvegicus. Conditions: Frontal cortex. The source holds these as a separate data set.
Description: Effect of compound (2 mg/kg ip) on the concentration of DA in rat frontal cortex
The species named for assay [28] is Rattus norvegicus. The note with it: Striatum. This is another data set of the same source.
Description: Effect of compound (2 mg/kg ip) on the concentration of DA in rat striatum
For assay [29], the species on record is Rattus norvegicus. Conditions: Frontal cortex. This is another data set of the same source.
Description: Effect of compound (2 mg/kg ip) on the concentration of DOPAC in rat frontal cortex
Assay [30] is filed under the species Rattus norvegicus. The source holds these as a separate data set.
Description: Effect of compound (2 mg/kg ip) on the concentration of DOPAC in rat mesolimbic region
Assay [31] is filed under the species Rattus norvegicus. Conditions: Striatum. This is another data set of the same source.
Description: Effect of compound (2 mg/kg ip) on the concentration of DOPAC in rat striatum
For assay [32], the species on record is Rattus norvegicus. Conditions: Frontal cortex. This is another data set of the same source.
Description: Effect of compound (2 mg/kg ip) on the concentration of DOPAC/DA in rat frontal cortex
The species named for assay [33] is Rattus norvegicus. The source holds these as a separate data set.
Description: Effect of compound (2 mg/kg ip) on the concentration of DOPAC/DA in rat mesolimbic region
Assay [34] is filed under the species Rattus norvegicus. The note with it: Striatum. This is another data set of the same source.
Description: Effect of compound (2 mg/kg ip) on the concentration of DOPAC/DA in rat striatum
The species named for assay [35] is Rattus norvegicus. Conditions: Frontal cortex. The source holds these as a separate data set.
Description: Effect of compound (2 mg/kg ip) on the concentration of HVA in rat frontal cortex
The species entered for assay [36] is Rattus norvegicus. This is another data set of the same source.
Description: Effect of compound (2 mg/kg ip) on the concentration of HVA in rat mesolimbic region
For assay [37], the species on record is Rattus norvegicus. Conditions: Striatum. The source holds these as a separate data set.
Description: Effect of compound (2 mg/kg ip) on the concentration of HVA in rat striatum
The species named for assay [38] is Rattus norvegicus. This is another data set of the same source.
Description: Effect of compound (2 mg/kg ip) on the concentration of DA in rat mesolimbic region

The record followed here is ChEMBL document CHEMBL1126960 (J Med Chem, 1993).

Chain of D(2) dopamine receptor (P14416 whole entry): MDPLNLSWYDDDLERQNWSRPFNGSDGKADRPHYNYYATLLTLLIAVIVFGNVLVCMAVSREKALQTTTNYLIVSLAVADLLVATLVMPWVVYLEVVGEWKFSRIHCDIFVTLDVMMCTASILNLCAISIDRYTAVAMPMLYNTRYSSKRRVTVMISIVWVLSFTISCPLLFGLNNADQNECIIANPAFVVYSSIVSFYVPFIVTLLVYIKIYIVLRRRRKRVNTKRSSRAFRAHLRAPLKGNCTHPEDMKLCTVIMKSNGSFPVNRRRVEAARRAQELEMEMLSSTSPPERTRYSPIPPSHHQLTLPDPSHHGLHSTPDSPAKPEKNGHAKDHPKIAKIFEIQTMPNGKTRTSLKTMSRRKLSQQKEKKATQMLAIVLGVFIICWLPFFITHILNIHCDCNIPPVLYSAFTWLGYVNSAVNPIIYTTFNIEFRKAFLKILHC
Chain of D(3) dopamine receptor (P35462 whole entry): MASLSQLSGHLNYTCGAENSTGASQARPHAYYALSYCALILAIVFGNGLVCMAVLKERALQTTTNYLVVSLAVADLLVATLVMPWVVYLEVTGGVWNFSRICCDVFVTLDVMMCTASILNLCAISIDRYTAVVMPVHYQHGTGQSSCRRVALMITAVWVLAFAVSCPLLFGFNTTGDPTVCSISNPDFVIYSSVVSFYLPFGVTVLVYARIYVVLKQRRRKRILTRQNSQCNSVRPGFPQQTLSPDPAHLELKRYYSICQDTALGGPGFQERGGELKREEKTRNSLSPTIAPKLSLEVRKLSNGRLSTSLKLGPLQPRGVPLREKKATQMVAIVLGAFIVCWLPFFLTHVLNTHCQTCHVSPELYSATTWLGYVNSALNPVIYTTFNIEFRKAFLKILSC
Description for D(2) dopamine receptor: Displacement of [3H]spiperone from CHO-K1 cell membranes expressing human dopamine receptor D2
Description for D(3) dopamine receptor: Displacement of [3H]-spiperone from CHO-K1 cell membranes expressing human dopamine 3 receptors

As usually defined, the Ki is the equilibrium dissociation constant of an inhibitor or competing ligand from its target. With `O[C@H](CCCN1CCN(c2ccccn2)CC1)c1ccc(F)cc1`, the Ki in the assay with Sigma 2 receptor [1] was 280 nM; on D(2) dopamine receptor it was 403 nM; at D(3) dopamine receptor it was 374 nM.

As for `O=C(CCCN1CCC(O)(c2ccc(Cl)cc2)CC1)c1ccc(F)cc1`, the Concentration (ng (g of tissue)-1) in the assay filed under Rattus norvegicus [2] worked out at 552; in the assay filed under Rattus norvegicus [3] it was 407; in the assay filed under Rattus norvegicus [4], 27; in the assay listed under Rattus norvegicus [5], 1680; in the assay filed under Rattus norvegicus [6], 5140; in the assay listed under Rattus norvegicus [7] it was 32. Moreover, the Concentration (ng (g of tissue)-1) in the assay listed under Rattus norvegicus [8] is 986; in the assay listed under Rattus norvegicus [9], 2870; in the assay filed under Rattus norvegicus [10], 0.587; in the assay listed under Rattus norvegicus [11], 0.558; in the assay filed under Rattus norvegicus [12] it was 102; in the assay filed under Rattus norvegicus [13], 669. Moreover, the Concentration (ng (g of tissue)-1) in the assay filed under Rattus norvegicus [14] is 2190; in the assay filed under Rattus norvegicus [15] it was 180; in the assay listed under Rattus norvegicus [16], 648; in the assay filed under Rattus norvegicus [17], 160; in the assay filed under Rattus norvegicus [18] it was 657; in the assay listed under Rattus norvegicus [19] it was 1.18.

In the assay on Sigma 2 receptor [1], `O=C(CCCN1CCN(c2ccccn2)CC1)c1ccc(F)cc1` [AZAPERONE] registered an inhibitory constant (Ki) of 51 nM.

In the case of `O[C@@H](CCCN1CCN(c2ccccn2)CC1)c1ccc(F)cc1`, the Ki in the assay with Sigma 2 receptor [1] was determined as 38 nM; at D(2) dopamine receptor, 101 nM; at D(3) dopamine receptor, 125 nM.

For the compound `O[C@H](CCCN1CCC(O)(c2ccc(Cl)cc2)CC1)c1ccc(F)cc1`, the Ki was found to be 31 nM on Sigma 2 receptor [20] and 1300 nM at D(3) dopamine receptor. Also, the Concentration (ng (g of tissue)-1) in the assay filed under Rattus norvegicus [21] worked out at 172; in the assay filed under Rattus norvegicus [22] it was 492; in the assay filed under Rattus norvegicus [23], 510; in the assay filed under Rattus norvegicus [24], 154; in the assay filed under Rattus norvegicus [25] it was 627; in the assay listed under Rattus norvegicus [26], 397. Also, the Concentration (ng (g of tissue)-1) in the assay listed under Rattus norvegicus [27] was found to be 18; in the assay filed under Rattus norvegicus [28], 3750; in the assay listed under Rattus norvegicus [29], 32; in the assay filed under Rattus norvegicus [30], 1020; in the assay listed under Rattus norvegicus [31] it was 2440; in the assay listed under Rattus norvegicus [32], 1.81. Moreover, the Concentration (ng (g of tissue)-1) was determined as 0.616 in the assay listed under Rattus norvegicus [33]; 0.651 in the assay filed under Rattus norvegicus [34]; 98 in the assay filed under Rattus norvegicus [35]; 641 in the assay listed under Rattus norvegicus [36]; 1780 in the assay filed under Rattus norvegicus [37]; 1660 in the assay filed under Rattus norvegicus [38].

In the case of `O[C@@H](CCCN1CCN(c2ncc(F)cn2)CC1)c1ccc(F)cc1` [BMY-14802], the Ki in the assay with Sigma 2 receptor [1] was 96 nM; on D(2) dopamine receptor, 3350 nM; at D(3) dopamine receptor it was over 2000 nM.

With `O[C@@H](CCCN1CCC(O)(c2ccc(Cl)cc2)CC1)c1ccc(F)cc1`, the inhibition constant Ki on Sigma 2 receptor [20] is 8.2 nM; on D(3) dopamine receptor, 330 nM. The Concentration (ng (g of tissue)-1) in the assay listed under Rattus norvegicus [21] was 156; in the assay listed under Rattus norvegicus [22] it was 527; in the assay listed under Rattus norvegicus [23] it was 437; in the assay listed under Rattus norvegicus [24], 165; in the assay filed under Rattus norvegicus [25] it was 639; in the assay filed under Rattus norvegicus [26], 367. Besides, the Concentration (ng (g of tissue)-1) in the assay filed under Rattus norvegicus [27] was 19; in the assay filed under Rattus norvegicus [28], 5230; in the assay listed under Rattus norvegicus [29], 32; in the assay listed under Rattus norvegicus [30], 1310; in the assay filed under Rattus norvegicus [31], 2740; in the assay filed under Rattus norvegicus [32], 1.7. Further, the Concentration (ng (g of tissue)-1) was 0.588 in the assay listed under Rattus norvegicus [33]; 0.523 in the assay listed under Rattus norvegicus [34]; 80 in the assay listed under Rattus norvegicus [35]; 788 in the assay listed under Rattus norvegicus [36]; 1980 in the assay listed under Rattus norvegicus [37]; 2230 in the assay filed under Rattus norvegicus [38].

`O[C@H](CCCN1CCN(c2ncc(F)cn2)CC1)c1ccc(F)cc1`: the inhibition constant Ki was 1240 nM with Sigma 2 receptor [1], over 5000 nM at D(2) dopamine receptor and over 2000 nM on D(3) dopamine receptor.
